# Active and inactive are the calls of the source. The rule behind the calls is not given here.
# What was measured:
# [1] = tested on: J774.A1; test: Antiinflammatory activity against LPS-induced mouse J774.A1 cells assessed as downregulation of p65 level at 20 uM incubated for 2 hrs by Western blot analysis; format: functional, cell-based
# [2] = tested on: J774.A1; test: Antiinflammatory activity against mouse J774.A1 cells assessed as inhibition of LPS-induced IL-6 release preincubated with compound for 30 mins followed by LPS-induction and measured after 24 hrs by ELISA analysis; format: functional, cell-based
# [3] = tested on: Mus musculus; test: Antiinflammatory activity against LPS-induced acute lung injury C57BL/6 mouse model assessed as decrease in TNF-alpha mRNA level in lung at 20 mg/kg, IG preincubated with compound for 30 mins followed by LPS-induction and measured after 6 hrs by qPCR analysis; format: functional, organism-based; conditions: time 390.0 min
# [4] = tested on: Mus musculus; test: Antiinflammatory activity against LPS-induced acute lung injury C57BL/6 mouse model assessed as suppression of IL-6 level in serum at 20 mg/kg, IG preincubated with compound for 30 mins followed by LPS-induction and measured after 6 hrs by ELISA analysis; format: functional, organism-based; conditions: time 390.0 min
# [5] = tested on: Mus musculus; test: Antiinflammatory activity against LPS-induced acute lung injury C57BL/6 mouse model assessed as alveolar septa thickness in lung at 20 mg/kg, IG preincubated with compound for 30 mins followed by LPS-induction and measured after 6 hrs by H and E staining based analysis; format: functional, organism-based; conditions: time 390.0 min
# [6] = tested on: J774.A1; test: Antiinflammatory activity against LPS-induced mouse J774.A1 cells assessed as increase in IkappaB-alpha level at 20 uM incubated for 2 hrs by Western blot analysis; format: functional, cell-based
# [7] = Oral bioavailability in Sprague-Dawley rat at 10 mg/kg measured upto 24 hrs by LC-MS analysis; format: ADME, organism-based; conditions: in vivo
# [8] = tested on: J774.A1; test: Antiinflammatory activity against mouse J774.A1 cells assessed as inhibition of LPS-induced IL-6 production pretreated with compound for 30 mins followed by LPS induction and measured after 24 hrs by ELISA analysis; format: functional; conditions: time 1470 min; 24.5 h
# [9] = tested on: Mus musculus; test: Antiinflammatory activity against LPS-induced acute lung injury C57BL/6 mouse model assessed as reduction in protein concentration in BALF at 20 mg/kg, IG preincubated with compound for 30 mins followed by LPS-induction and measured after 6 hrs; format: functional, organism-based; conditions: time 390.0 min
# [10] = AUC (0 to infinity) in Sprague-Dawley rat at 1 mg/kg, iv measured upto 24 hrs by LC-MS analysis; format: ADME, organism-based; conditions: in vivo
# [11] = tested on: Mus musculus; test: Antiinflammatory activity against DSS-induced acute colitis C57BL/6 mouse model assessed as reduction in splenomegaly at 5 mg/kg, po pretreated with DSS for 7 days followed by compound addition for every day for 10 days; format: functional, organism-based; conditions: time 10.0 day
# [12] = MRT (0 to t) in Sprague-Dawley rat at 1 mg/kg, iv measured upto 24 hrs by LC-MS analysis; format: ADME, organism-based; conditions: in vivo
# [13] = tested on: J774.A1; test: Antiinflammatory activity against mouse J774.A1 cells assessed as inhibition of LPS-induced TNF-alpha release preincubated with compound for 30 mins followed by LPS-induction and measured after 24 hrs by ELISA analysis; format: functional, cell-based
# [14] = AUC (0 to t) in Sprague-Dawley rat at 10 mg/kg, po measured upto 24 hrs by LC-MS analysis; format: ADME, organism-based; conditions: in vivo
# [15] = Cmax in Sprague-Dawley rat at 1 mg/kg, iv measured upto 24 hrs by LC-MS analysis; format: ADME, organism-based; conditions: in vivo
# [16] = tested on: Mus musculus; test: Antiinflammatory activity against LPS-induced acute lung injury C57BL/6 mouse model assessed as suppression of TNF-alpha level in BALF at 20 mg/kg, IG preincubated with compound for 30 mins followed by LPS-induction and measured after 6 hrs by ELISA analysis; format: functional, organism-based; conditions: time 390.0 min
# [17] = tested on: J774.A1; test: Antiinflammatory activity against LPS-induced mouse J774.A1 cells assessed as reduction in p65 nuclear translocation at 20 uM incubated for 2 hrs by DAPI staining based immunofluorescence analysis; format: functional, cell-based
# [18] = tested on: Mus musculus; test: Antiinflammatory activity against DSS-induced acute colitis C57BL/6 mouse model assessed as increase in colon length at 5 mg/kg, po pretreated with DSS for 7 days followed by compound addition for every day for 10 days; format: functional, organism-based; conditions: time 10.0 day
# [19] = Half life in Sprague-Dawley rat at 1 mg/kg, iv measured upto 24 hrs by LC-MS analysis; format: ADME, organism-based; conditions: in vivo
# [20] = tested on: Mus musculus; test: Antiinflammatory activity against LPS-induced acute lung injury C57BL/6 mouse model assessed as reduction in pulmonary edema by measuring lung wet to dry ratio at 20 mg/kg, IG pretreated with compound for 30 mins followed by LPS-induction and measured after 6 hrs; format: functional, organism-based; conditions: time 390.0 min
# [21] = tested on: Mus musculus; test: Antiinflammatory activity against LPS-induced acute lung injury C57BL/6 mouse model assessed as inflammatory infiltration in lung at 20 mg/kg, IG preincubated with compound for 30 mins followed by LPS-induction and measured after 6 hrs by H and E staining based analysis; format: functional, organism-based; conditions: time 390.0 min
# [22] = Cmax in Sprague-Dawley rat at 10 mg/kg, po measured upto 24 hrs by LC-MS analysis; format: ADME, organism-based; conditions: in vivo
# [23] = tested on: J774.A1; test: Antiinflammatory activity against LPS-induced mouse J774.A1 cells assessed as downregulation of TNF-alpha mRNA level preincubated with compound for 30 mins followed by LPS-induction and measured after 6 hrs by qPCR analysis; format: functional, cell-based; conditions: time 390.0 min
# [24] = Half life in Sprague-Dawley rat at 10 mg/kg, po measured upto 24 hrs by LC-MS analysis; format: ADME, organism-based; conditions: in vivo
# [25] = Apparent volume of distribution in Sprague-Dawley rat at 10 mg/kg, po measured upto 24 hrs by LC-MS analysis; format: ADME, organism-based; conditions: in vivo
# [26] = tested on: Mus musculus; test: Antiinflammatory activity against LPS-induced acute lung injury C57BL/6 mouse model assessed as lung tissue destruction at 20 mg/kg, IG preincubated with compound for 30 mins followed by LPS-induction and measured after 6 hrs by H and E staining based analysis; format: functional, organism-based; conditions: time 390.0 min
# [27] = Clearance in Sprague-Dawley rat at 10 mg/kg, po measured upto 24 hrs by LC-MS analysis; format: ADME, organism-based; conditions: in vivo
# [28] = tested on: Mus musculus; test: Antiinflammatory activity against LPS-induced acute lung injury C57BL/6 mouse model assessed as suppression of IL-6 level in BALF at 20 mg/kg, IG preincubated with compound for 30 mins followed by LPS-induction and measured after 6 hrs by ELISA analysis; format: functional, organism-based; conditions: time 390.0 min
# [29] = Tmax in Sprague-Dawley rat at 1 mg/kg, iv measured upto 24 hrs by LC-MS analysis; format: ADME, organism-based; conditions: in vivo
# [30] = tested on: Mus musculus; test: Antiinflammatory activity against DSS-induced acute colitis C57BL/6 mouse model assessed as reduction in inflammatory infiltration in colon at 5 mg/kg, po pretreated with DSS for 7 days followed by compound addition for every day for 10 days by H and E staining based analysis; format: functional, organism-based; conditions: time 10.0 day
# [31] = tested on: Mus musculus; test: Antiinflammatory activity against DSS-induced acute colitis C57BL/6 mouse model assessed as reduction in mucosal damage in colon at 5 mg/kg, po pretreated with DSS for 7 days followed by compound addition for every day for 10 days by H and E staining based analysis; format: functional, organism-based; conditions: time 10.0 day
# [32] = Apparent volume of distribution in Sprague-Dawley rat at 1 mg/kg, iv measured upto 24 hrs by LC-MS analysis; format: ADME, organism-based; conditions: in vivo, read-out: Vz
# [33] = tested on: Mus musculus; test: Antiinflammatory activity against DSS-induced acute colitis C57BL/6 mouse model assessed as attenuation of white pulp at 5 mg/kg, po pretreated with DSS for 7 days followed by compound addition for every day for 10 days by H and E staining based analysis; format: functional, organism-based; conditions: time 10.0 day
# [34] = AUC (0 to t) in Sprague-Dawley rat at 1 mg/kg, iv measured upto 24 hrs by LC-MS analysis; format: ADME, organism-based; conditions: in vivo
compound,measurement,setting,value
O=[N+]([O-])c1ccc(N2CCN(c3ccc(S(=O)(=O)NCc4ccccn4)cc3[N+](=O)[O-])CC2)cc1,Activity,[1],Active
same,IC50,[2],610 nM
same,Activity,[3],Active
same,Activity,[4],Active
same,Activity,[5],Active
same,Activity,[6],Active
same,bioavailability,[7],10.6%
same,inhibition (INH),[8],85.92%
same,Activity,[9],Active
same,AUC(0-inf),[10],1120 ng·h/mL
same,Activity,[11],Active
same,MRT last at 24 h,[12],1.1 h
same,IC50,[13],4340 nM
same,AUC(0-t) at 24 h,[14],1060 ng·h/mL
same,Cmax,[15],1320 ng/mL
same,Activity,[16],Active
same,Activity,[17],Active
same,Activity,[18],Active
same,half-life,[19],1.8 h
same,Activity,[20],Active
same,Activity,[21],Active
same,Cmax,[22],168 ng/mL
same,Activity,[23],Active
same,half-life,[24],7.1 h
same,Vz,[25],80 L/kg
same,Activity,[26],Active
same,clearance,[27],150 mL/min/kg
same,Activity,[28],Active
same,Tmax,[29],8.4 min
same,Activity,[30],Active
same,Activity,[31],Active
same,Vd,[32],2.3 L/kg
same,Activity,[33],Active
same,AUC(0-t) at 24 h,[34],1110 ng·h/mL

# Reference: ChEMBL document CHEMBL5625228, “Design, synthesis, and bioactivity evaluation of novel amide/sulfonamide derivatives as potential anti-inflammatory agents against acute lung injury and ulcerative colitis” (Eur J Med Chem, 2023)
